What all share (details): PC-3
For experiment [1], the target named is Dual specificity mitogen-activated protein kinase kinase 1 (Homo sapiens) (UniProt Q02750). The experiment can be described thus: Inhibition of MAP2K1 in human PC3 cell lysates at 10 uM using desthiobiotin-tagged ATP probe AX9989 followed by trypsinization by LC/MS analysis.
The target of experiment [2] is Tyrosine-protein kinase Yes (Homo sapiens) (UniProt P07947). The experiment can be described thus: Inhibition of YES in human PC3 cell lysates at 10 uM using desthiobiotin-tagged ATP probe AX9989 followed by trypsinization by LC/MS analysis.
Experiment [3] concerns the target Proto-oncogene tyrosine-protein kinase Src (Homo sapiens) (UniProt P12931). Put plainly: Inhibition of SRC in human PC3 cell lysates at 10 uM using desthiobiotin-tagged ATP probe AX9989 followed by trypsinization by LC/MS analysis.
The target of experiment [4] is Ephrin type-A receptor 2 (Homo sapiens) (UniProt P29317). Put plainly: Inhibition of EphA2 in human PC3 cell lysates at 10 uM using desthiobiotin-tagged ATP probe AX9989 followed by trypsinization by LC/MS analysis.
The target in experiment [5] is DNA-dependent protein kinase catalytic subunit (Homo sapiens) (UniProt P78527). The experiment can be described thus: Inhibition of DNAPK in human PC3 cell lysates at 10 uM using desthiobiotin-tagged ATP probe AX9989 followed by trypsinization by LC/MS analysis.
Sequence of DNA-dependent protein kinase catalytic subunit (Homo sapiens) (P78527 whole entry): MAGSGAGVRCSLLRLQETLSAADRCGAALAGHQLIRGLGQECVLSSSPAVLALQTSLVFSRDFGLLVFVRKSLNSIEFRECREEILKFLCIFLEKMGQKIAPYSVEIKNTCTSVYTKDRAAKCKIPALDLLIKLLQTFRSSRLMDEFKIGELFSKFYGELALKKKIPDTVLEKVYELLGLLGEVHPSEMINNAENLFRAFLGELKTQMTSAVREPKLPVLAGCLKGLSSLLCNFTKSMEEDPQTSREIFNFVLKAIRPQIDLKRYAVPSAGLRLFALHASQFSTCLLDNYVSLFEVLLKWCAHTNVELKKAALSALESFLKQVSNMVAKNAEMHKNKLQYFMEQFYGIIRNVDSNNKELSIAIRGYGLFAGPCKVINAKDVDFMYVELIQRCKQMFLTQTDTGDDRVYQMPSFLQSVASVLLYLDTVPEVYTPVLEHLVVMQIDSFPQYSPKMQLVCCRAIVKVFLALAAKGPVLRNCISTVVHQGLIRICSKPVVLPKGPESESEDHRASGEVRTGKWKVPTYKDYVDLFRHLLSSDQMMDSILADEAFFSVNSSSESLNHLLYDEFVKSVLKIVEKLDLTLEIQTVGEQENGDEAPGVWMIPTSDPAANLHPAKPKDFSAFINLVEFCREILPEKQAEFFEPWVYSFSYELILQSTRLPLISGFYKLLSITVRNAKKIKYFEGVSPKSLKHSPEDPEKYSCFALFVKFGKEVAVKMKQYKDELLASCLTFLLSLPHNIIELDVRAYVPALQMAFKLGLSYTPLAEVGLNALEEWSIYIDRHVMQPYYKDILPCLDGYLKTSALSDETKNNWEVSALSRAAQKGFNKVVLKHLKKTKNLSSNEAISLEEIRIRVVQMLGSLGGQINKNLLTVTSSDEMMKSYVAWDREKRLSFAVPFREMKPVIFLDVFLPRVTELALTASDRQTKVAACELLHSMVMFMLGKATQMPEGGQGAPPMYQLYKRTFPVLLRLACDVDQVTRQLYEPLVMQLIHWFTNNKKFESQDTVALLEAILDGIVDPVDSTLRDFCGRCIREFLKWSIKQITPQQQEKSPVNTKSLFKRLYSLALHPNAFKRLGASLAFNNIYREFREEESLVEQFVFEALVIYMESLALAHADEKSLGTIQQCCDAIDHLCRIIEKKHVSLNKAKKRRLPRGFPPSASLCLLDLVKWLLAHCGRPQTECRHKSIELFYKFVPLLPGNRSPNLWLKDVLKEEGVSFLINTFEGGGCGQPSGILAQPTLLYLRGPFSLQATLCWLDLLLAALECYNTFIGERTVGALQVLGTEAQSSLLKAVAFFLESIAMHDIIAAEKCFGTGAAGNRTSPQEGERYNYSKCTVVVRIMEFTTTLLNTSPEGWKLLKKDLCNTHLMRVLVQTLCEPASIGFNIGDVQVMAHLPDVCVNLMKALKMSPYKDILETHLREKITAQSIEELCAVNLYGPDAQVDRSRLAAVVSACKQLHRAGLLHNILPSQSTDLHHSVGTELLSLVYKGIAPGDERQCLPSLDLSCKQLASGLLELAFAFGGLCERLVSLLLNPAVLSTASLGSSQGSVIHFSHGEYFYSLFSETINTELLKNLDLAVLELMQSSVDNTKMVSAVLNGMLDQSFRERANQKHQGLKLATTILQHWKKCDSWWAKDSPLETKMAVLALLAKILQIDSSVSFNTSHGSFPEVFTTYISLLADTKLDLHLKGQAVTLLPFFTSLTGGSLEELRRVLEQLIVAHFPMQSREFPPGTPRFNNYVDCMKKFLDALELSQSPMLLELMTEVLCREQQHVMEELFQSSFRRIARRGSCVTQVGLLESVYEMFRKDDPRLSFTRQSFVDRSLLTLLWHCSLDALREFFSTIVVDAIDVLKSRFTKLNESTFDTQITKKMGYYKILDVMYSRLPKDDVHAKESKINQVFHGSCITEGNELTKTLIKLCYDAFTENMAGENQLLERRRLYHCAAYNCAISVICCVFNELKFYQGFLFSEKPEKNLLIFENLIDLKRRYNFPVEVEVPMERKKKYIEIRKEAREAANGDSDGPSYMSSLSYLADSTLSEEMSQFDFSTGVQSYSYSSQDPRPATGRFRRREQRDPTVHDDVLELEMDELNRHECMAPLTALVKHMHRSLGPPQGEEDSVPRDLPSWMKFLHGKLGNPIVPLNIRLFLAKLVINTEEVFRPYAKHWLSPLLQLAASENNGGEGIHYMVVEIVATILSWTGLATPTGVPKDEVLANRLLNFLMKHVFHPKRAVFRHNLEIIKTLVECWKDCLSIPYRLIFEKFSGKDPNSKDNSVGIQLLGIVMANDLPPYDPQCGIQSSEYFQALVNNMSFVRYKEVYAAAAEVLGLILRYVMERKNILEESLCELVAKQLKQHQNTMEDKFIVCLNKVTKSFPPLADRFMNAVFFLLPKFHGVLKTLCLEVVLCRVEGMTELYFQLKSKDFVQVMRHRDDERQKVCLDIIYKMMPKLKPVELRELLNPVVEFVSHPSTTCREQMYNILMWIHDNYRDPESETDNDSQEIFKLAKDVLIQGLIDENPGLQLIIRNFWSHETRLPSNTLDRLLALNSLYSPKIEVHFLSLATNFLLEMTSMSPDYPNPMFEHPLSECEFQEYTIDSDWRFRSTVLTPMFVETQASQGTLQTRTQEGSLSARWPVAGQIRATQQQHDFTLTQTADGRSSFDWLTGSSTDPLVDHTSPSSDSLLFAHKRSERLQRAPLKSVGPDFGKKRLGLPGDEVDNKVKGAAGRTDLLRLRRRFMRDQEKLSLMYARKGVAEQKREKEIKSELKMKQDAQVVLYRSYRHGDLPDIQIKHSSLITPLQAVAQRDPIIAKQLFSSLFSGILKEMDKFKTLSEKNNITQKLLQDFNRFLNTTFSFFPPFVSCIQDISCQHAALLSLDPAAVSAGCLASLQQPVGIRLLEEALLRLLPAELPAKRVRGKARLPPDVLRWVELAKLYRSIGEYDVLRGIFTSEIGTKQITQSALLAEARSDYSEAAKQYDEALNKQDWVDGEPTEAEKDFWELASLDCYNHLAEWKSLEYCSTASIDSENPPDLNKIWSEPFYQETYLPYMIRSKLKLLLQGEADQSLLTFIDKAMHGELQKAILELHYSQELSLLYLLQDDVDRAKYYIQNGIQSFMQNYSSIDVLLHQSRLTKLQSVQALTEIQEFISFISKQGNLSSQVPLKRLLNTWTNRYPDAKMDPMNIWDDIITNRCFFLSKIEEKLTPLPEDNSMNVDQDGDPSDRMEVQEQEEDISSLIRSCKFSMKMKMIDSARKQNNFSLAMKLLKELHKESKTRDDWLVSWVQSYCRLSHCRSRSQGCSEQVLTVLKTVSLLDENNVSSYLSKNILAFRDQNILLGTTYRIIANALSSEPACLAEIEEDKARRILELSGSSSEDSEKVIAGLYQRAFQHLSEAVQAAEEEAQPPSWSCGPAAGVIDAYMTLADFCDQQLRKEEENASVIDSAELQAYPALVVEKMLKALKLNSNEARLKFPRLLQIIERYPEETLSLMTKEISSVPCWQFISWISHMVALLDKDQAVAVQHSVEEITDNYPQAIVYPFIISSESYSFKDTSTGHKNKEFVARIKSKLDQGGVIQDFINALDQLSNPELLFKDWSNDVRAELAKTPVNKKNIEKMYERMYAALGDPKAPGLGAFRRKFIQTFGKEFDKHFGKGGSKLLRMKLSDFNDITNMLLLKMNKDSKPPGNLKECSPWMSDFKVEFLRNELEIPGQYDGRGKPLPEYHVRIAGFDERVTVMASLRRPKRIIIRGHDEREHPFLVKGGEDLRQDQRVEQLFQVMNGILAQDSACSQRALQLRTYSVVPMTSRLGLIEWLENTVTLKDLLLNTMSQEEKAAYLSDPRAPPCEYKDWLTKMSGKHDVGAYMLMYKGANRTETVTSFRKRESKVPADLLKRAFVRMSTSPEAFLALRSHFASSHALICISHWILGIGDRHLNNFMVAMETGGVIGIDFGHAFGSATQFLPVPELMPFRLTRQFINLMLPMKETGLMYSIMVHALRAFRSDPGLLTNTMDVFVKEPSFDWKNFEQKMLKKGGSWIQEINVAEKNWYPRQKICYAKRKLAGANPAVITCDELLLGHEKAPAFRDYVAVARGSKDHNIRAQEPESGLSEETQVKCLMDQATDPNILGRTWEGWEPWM
In experiment [6] the target is T1, Serine/threonine-protein kinase STK11 (Homo sapiens) (UniProt Q15831).
T1 sequence (whole entry): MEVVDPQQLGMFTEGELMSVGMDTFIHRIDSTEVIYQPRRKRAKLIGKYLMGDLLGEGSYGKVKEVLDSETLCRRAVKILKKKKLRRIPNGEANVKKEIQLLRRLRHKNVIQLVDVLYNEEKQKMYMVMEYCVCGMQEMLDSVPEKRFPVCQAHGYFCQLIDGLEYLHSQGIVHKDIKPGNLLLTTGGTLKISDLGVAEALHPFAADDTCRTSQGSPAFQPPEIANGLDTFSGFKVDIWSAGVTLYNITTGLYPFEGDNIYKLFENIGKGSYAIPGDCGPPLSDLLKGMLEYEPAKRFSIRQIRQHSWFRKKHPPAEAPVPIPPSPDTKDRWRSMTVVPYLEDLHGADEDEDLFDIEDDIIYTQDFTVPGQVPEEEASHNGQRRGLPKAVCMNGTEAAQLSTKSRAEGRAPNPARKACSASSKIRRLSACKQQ
Put plainly: Inhibition of LKB1 in human PC3 cell lysates at 10 uM using desthiobiotin-tagged ATP probe AX9989 followed by trypsinization by LC/MS analysis.

The target in experiment [7] is PI4KA/PI4KAP2 (Homo sapiens) (UniProt P42356+A4QPH2). Put plainly: Inhibition of PI4KA/PI4KAP2 in human PC3 cell lysates at 10 uM using desthiobiotin-tagged ATP probe AX9989 followed by trypsinization by LC/MS analysis. It is filed as protein-complex assay.
In experiment [8] the target is p38 delta/gamma (Homo sapiens) (UniProt O15264+P53778). Put plainly: Inhibition of p38delta/gamma in human PC3 cell lysates at 10 uM using desthiobiotin-tagged ATP probe AX9989 followed by trypsinization by LC/MS analysis. It counts as protein assay.
Experiment [9] concerns the target Glycogen synthase kinase-3 beta (Homo sapiens) (UniProt P49841). Put plainly: Inhibition of GSK3beta in human PC3 cell lysates at 10 uM using desthiobiotin-tagged ATP probe AX9989 followed by trypsinization by LC/MS analysis.
Experiment [10] deals with STE20-like serine/threonine-protein kinase (Homo sapiens) (UniProt Q9H2G2). The experiment can be described thus: Inhibition of SLK in human PC3 cell lysates at 10 uM using desthiobiotin-tagged ATP probe AX9989 followed by trypsinization by LC/MS analysis.
Experiment [11] has as its target Macrophage-stimulating protein receptor (Homo sapiens) (UniProt Q04912). Put plainly: Inhibition of RON in human PC3 cell lysates at 10 uM using desthiobiotin-tagged ATP probe AX9989 followed by trypsinization by LC/MS analysis.
Experiment [12] addresses Cyclin-dependent kinase 9 (Homo sapiens) (UniProt P50750). The experiment can be described thus: Inhibition of CDK9 in human PC3 cell lysates at 10 uM using desthiobiotin-tagged ATP probe AX9989 followed by trypsinization by LC/MS analysis.
For experiment [13], the target named is Serine/threonine-protein kinase 25 (Homo sapiens) (UniProt O00506). The experiment can be described thus: Inhibition of YSK1 in human PC3 cell lysates at 10 uM using desthiobiotin-tagged ATP probe AX9989 followed by trypsinization by LC/MS analysis.
Experiment [14] has as its target Serine/threonine-protein kinase 26 (Homo sapiens) (UniProt Q9P289). Put plainly: Inhibition of MST4 in human PC3 cell lysates at 10 uM using desthiobiotin-tagged ATP probe AX9989 followed by trypsinization by LC/MS analysis.
Experiment [15] concerns the target T2, Serine/threonine-protein kinase 3 (Homo sapiens) (UniProt Q13188).
T2 sequence (whole entry): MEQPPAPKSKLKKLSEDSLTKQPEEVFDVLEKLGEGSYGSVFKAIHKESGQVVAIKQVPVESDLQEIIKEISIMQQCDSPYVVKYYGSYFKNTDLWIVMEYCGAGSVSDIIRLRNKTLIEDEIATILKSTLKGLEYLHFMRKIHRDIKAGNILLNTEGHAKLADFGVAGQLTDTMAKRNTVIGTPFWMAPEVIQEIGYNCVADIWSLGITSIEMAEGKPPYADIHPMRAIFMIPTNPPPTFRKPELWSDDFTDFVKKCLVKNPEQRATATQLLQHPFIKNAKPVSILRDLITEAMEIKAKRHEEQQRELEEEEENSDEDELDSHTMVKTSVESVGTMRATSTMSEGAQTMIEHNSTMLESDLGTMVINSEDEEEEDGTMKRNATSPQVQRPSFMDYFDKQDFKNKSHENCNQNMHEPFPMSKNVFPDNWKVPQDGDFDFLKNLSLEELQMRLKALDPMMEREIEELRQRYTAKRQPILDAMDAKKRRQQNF
The experiment can be described thus: Inhibition of MST2 in human PC3 cell lysates at 10 uM using desthiobiotin-tagged ATP probe AX9989 followed by trypsinization by LC/MS analysis.

Experiment [16] concerns the target Hepatocyte growth factor receptor (Homo sapiens) (UniProt P08581). Put plainly: Inhibition of MET in human PC3 cell lysates at 10 uM using desthiobiotin-tagged ATP probe AX9989 followed by trypsinization by LC/MS analysis.

Structures are written as SMILES.

Sequence of Proto-oncogene tyrosine-protein kinase Src (Homo sapiens) (P12931 2-536 limits assumed): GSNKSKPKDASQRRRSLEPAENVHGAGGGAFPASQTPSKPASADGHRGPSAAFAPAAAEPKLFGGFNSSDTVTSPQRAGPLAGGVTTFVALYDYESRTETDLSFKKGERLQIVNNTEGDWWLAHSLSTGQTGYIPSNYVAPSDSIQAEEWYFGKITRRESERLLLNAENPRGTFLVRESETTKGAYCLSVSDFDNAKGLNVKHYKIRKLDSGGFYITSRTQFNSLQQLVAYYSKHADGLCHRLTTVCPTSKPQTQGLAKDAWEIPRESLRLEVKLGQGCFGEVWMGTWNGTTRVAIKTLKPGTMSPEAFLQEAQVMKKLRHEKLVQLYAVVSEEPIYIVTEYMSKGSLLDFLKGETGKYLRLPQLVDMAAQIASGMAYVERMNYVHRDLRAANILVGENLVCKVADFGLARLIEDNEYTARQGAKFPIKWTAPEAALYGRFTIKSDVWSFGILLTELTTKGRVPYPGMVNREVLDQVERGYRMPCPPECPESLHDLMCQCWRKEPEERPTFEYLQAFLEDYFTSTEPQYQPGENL
Sequence of Serine/threonine-protein kinase 26 (Homo sapiens) (Q9P289 2-416 limits assumed): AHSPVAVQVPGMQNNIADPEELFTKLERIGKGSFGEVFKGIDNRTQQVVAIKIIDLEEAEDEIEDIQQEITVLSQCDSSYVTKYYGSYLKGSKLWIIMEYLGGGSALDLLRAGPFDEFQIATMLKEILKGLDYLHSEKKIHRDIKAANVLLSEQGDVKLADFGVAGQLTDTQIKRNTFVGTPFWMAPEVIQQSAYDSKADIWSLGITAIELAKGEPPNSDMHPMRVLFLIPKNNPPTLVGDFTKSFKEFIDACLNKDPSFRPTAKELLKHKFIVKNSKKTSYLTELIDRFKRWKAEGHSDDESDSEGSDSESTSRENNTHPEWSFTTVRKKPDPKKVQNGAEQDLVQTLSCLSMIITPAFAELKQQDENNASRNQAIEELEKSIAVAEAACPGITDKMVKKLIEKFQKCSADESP

In the case of `O=C(NC1(c2ccc(F)cc2)CC1)c1ccc2nc(N[C@H]3CC[C@H](O)CC3)c3nccn3c2c1`, the inhibition in experiment [1], in [2], in experiment [3], in [4], in experiment [5] and in experiment [6] was less than 35% in each case. Further, the inhibition in experiment [7], in experiment [8], in experiment [9], in experiment [10], in experiment [11] and in experiment [12] was less than 35% throughout. For the same compound, the inhibition in [13], in [14], in experiment [15] and in experiment [16] was less than 35% in each case.
As to `C[C@H](NC(=O)c1ccc2nc(N[C@H]3CC[C@H](O)CC3)c3nccn3c2c1)c1ccccc1`, the inhibition in experiment [1], in experiment [2], in experiment [3], in experiment [4], in [5] and in [6] was less than 35% throughout. Further, the inhibition in experiment [7], in experiment [8], in [9], in experiment [10], in experiment [11] and in experiment [12] was less than 35% in each case. For the same compound, the inhibition in experiment [13], in experiment [14], in experiment [15] and in experiment [16] was less than 35% throughout.
Take `O=C(O)c1ccc2nc(N[C@H]3CC[C@H](O)CC3)c3nccn3c2c1`: the inhibition in [1], in [2], in experiment [3], in experiment [4], in [5] and in experiment [6] was less than 35% in each case. The inhibition is 73.1% in experiment [7]; 57.7% in experiment [8]; 98.6% in [9]; less than 35% in experiment [10]; less than 35% in experiment [11]; 97.9% in [12]. For the same compound, the inhibition in experiment [13], in experiment [14], in [15] and in experiment [16] was less than 35% each time.
For the compound `O=C(NC1(c2ccccc2)CC1)c1ccc2nc(N[C@H]3CC[C@H](O)CC3)c3nccn3c2c1`, the inhibition in experiment [1], in experiment [2], in experiment [3], in [4], in experiment [5] and in [6] was less than 35% throughout. Besides, the inhibition in experiment [7], in experiment [8], in experiment [9], in experiment [10], in experiment [11] and in experiment [12] was less than 35% throughout. The inhibition in experiment [13], in [14], in [15] and in [16] was less than 35% throughout.
Regarding `O=C(N[C@H](CO)c1ccccc1)c1ccc2nc(N[C@H]3CC[C@H](O)CC3)c3nccn3c2c1`, the inhibition in experiment [1], in [2], in experiment [3], in experiment [4], in [5] and in [6] was less than 35% each time. For the same compound, the inhibition in experiment [7], in [8], in [9], in [10], in [11] and in [12] was less than 35% each time. Moreover, the inhibition in experiment [13], in experiment [14], in experiment [15] and in experiment [16] was less than 35% in each case.
Turning to `C[C@@H](NC(=O)c1ccc2nc(N[C@H]3CC[C@H](O)CC3)c3nccn3c2c1)c1ccccc1`, the inhibition in experiment [1], in experiment [2], in experiment [3], in [4], in experiment [5] and in experiment [6] was less than 35% each time. Also, the inhibition in experiment [7] was less than 35%; in experiment [8], less than 35%; in experiment [9], less than 35%; in experiment [10] it was less than 35%; in [11], less than 35%; in experiment [12], 42%. Besides, the inhibition in experiment [13], in experiment [14], in [15] and in [16] was less than 35% throughout.
In the case of `CC[C@@H](NC(=O)c1ccc2nc(N[C@H]3CC[C@H](O)CC3)c3nccn3c2c1)c1ccccc1`, the inhibition in [1], in [2], in [3], in [4], in experiment [5] and in experiment [6] was less than 35% throughout. Also, the inhibition in experiment [7], in experiment [8], in [9], in [10], in experiment [11] and in experiment [12] was less than 35% each time. Moreover, the inhibition in experiment [13], in [14], in experiment [15] and in experiment [16] was less than 35% in each case.
On to `CCC[C@@H](NC(=O)c1ccc2nc(N[C@H]3CC[C@H](O)CC3)c3nccn3c2c1)c1ccccc1`, for which the inhibition in [1], in experiment [2], in experiment [3], in experiment [4], in [5] and in [6] was less than 35% throughout. Further, the inhibition in experiment [7], in experiment [8], in experiment [9], in experiment [10], in [11] and in [12] was less than 35% throughout. Moreover, the inhibition in experiment [13], in experiment [14], in [15] and in experiment [16] was less than 35% in each case.

As usually defined, the inhibition is the change of the read-out against control, counted positive when it falls. The low end stands for a response near the control, the high end for a response far below the control.

For the origin of these results see ChEMBL document CHEMBL2417377, “Hit-to-lead optimization and kinase selectivity of imidazo[1,2-a]quinoxalin-4-amine derived JNK1 inhibitors” (Bioorg Med Chem Lett, 2013).
